According to PMC7431030 (Nature, 2020):
“Also recorded” adds a separate entry of the source. Square brackets hold non-standard residues; d marks the D form. Peptide text beside a SMILES is read from it. NMeTrp(1-(4-Br-benzyl)) = CN[C@@H](Cc1cn(Cc2ccc(Br)cc2)c2ccccc12)C(=O)O; Butanoyl(2R-oxy,4-CN) = N#CCC[C@@H](O)C(=O)O; NMeL = CN[C@@H](CC(C)C)C(=O)O; NMeA = CN[C@@H](C)C(=O)O

Columns and labels:
SIGMAR2/TMEM97 = details: annotated activity, Extended Data Fig. 10b; cited from earlier work
SARS-CoV-2 [1] = format: cell-based
SARS-CoV-2 [2] = format: cell-based; remark: listed apart in the source
SARS-CoV-2 [3] = format: cell-based; details: Vero E6 cells
viral replication = details: cited from earlier work
SIGMAR1 = details: Extended Data Fig. 10b, cited from earlier work

| Compound | antiviral activity / viral infectivity (in words) (SARS-CoV-2 [3]) | other results |
| --- | --- | --- |
| Cc1cc(OCCN2CCOCC2)nn1-c1ccc2ccccc2c1 [E-52862] | – | binding at SIGMAR2/TMEM97, reported (SIGMAR2/TMEM97): greater than 1 μM |
| COc1cccc2c1CCCC2CCCN1CCN(C2CCCCC2)CC1 (stereo not shown) [PB28] | effectively reducing viral infectivity | times more potent than hydroxychloroquine (SARS-CoV-2 [1]): ~ 20 times; detection of the viral NP protein (in words) (SARS-CoV-2 [2]): decreased the detection of the viral NP protein |
| CCCN1CCC=C(c2cc(-c3ccc(C)cc3)no2)C1.O=C(O)C(=O)O [PD-144418] | effectively reducing viral infectivity | – |
| CC(C)C[C@@H]1NC(=O)[C@H](Cc2cn(Cc3ccc(Br)cc3)c3ccccc23)N(C)C(=O)[C@H](CC(C)C)NC(=O)[C@H](CC(C)C)N(C)C(=O)[C@H](CC(C)C)NC(=O)[C@@H](CCC#N)OC(=O)[C@H](C)N(C)C1=O [PS3061] (cyclo(L[NMeA][Butanoyl(2R-oxy,4-CN)]L[NMeL]L[NMeTrp(1-(4-Br-benzyl))])) | effectively reducing viral infectivity; also recorded: blocked SARS-CoV-2 replication | – |
| CCCCc1oc2ccccc2c1C(=O)c1cc(I)c(OCCN(CC)CC)c(I)c1 [amiodarone] | – | activity in viral replication assays reported by others (in words) (viral replication): active in viral replication assays |
| COc1ccc(CCN2CCC(Nc3nc4ccccc4n3Cc3ccc(F)cc3)CC2)cc1 [astemizole] | – | activity in viral replication assays reported by others (in words) (viral replication): active in viral replication assays |
| Clc1ccc(C(OCCN2CCCCC2)c2ccccc2)cc1 (stereo not shown) [cloperastine] | antiviral activity | – |
| COc1ccc2c(c1)[C@]13CCCC[C@@H]1[C@H](C2)N(C)CC3 [dextromethorphan] | pro-viral activity | viral titers (TCID50), effect in words (SARS-CoV-2 [1]): increases viral titers |
| O=C(CCCN1CCC(O)(c2ccc(Cl)cc2)CC1)c1ccc(F)cc1 [haloperidol, Haloperidol] | effectively reducing viral infectivity; also recorded: antiviral activity | – |
| CCN(CCO)CCCC(C)Nc1ccnc2cc(Cl)ccc12 (stereo not shown) [hydroxychloroquine] | effectively reducing viral infectivity | detection of the viral NP protein (in words) (SARS-CoV-2 [2]): decreased the detection of the viral NP protein |
| Cc1cc2c(s1)Nc1ccccc1N=C2N1CCN(C)CC1 [olanzapine] | not antiviral | Sigma receptor activity (in words) (SIGMAR1): little Sigma receptor activity; activity at SIGMAR1, reported (SIGMAR1; annotated activity): greater than 5 μM |
| CC(=O)[C@H]1CC[C@H]2[C@@H]3CCC4=CC(=O)CC[C@]4(C)[C@H]3CC[C@]12C [progesterone] | antiviral | – |
| Fc1ccc(-n2cc(CCCCN3CCC4(CC3)OCc3ccccc34)c3ccccc32)cc1 [siramesine] | antiviral | – |
| COc1ccc(CCN(C)CCCC(C#N)(c2ccc(OC)c(OC)c2)C(C)C)cc1OC (stereo not shown) [verapamil] | – | activity in viral replication assays reported by others (in words) (viral replication): active in viral replication assays |
| COc1cc2c(c(OC)n1)[C@]1(O)[C@H](O)[C@H](CN(C)C)[C@@H](c3ccccc3)[C@]1(c1ccc(C#N)cc1)O2 [zotatifin] | reduce viral infectivity in a concentration-dependent matter; also recorded: effectively reducing viral infectivity; also recorded: strong antiviral effect | detection of the viral NP protein (in words) (SARS-CoV-2 [2]): decreased the detection of the viral NP protein |
